In US10770169B2, “Method of providing a treatment to a subject based on a dynamic pathway map” (THE REGENTS OF THE UNIVERSITY OF CALIFORNIA, priority 2010, dated 2020):

Test system: panel of 55 breast cancer cell lines
Experiment: Cell growth inhibition assay (Cell Titer Glo, 72 h, 9 doses; GI50, TGI, LC50)
Assay type: cell-based, human
Settings: value is the negative log10 of mol/L
[1] = 600MPE cell line, censored GI50 values
[2] = HCC70 cell line, censored GI50 values
[3] = HCC1395 cell line, censored GI50 values
[4] = HCC1419 cell line, censored GI50 values
[5] = HCC1806 cell line, censored GI50 values
[6] = HCC1954 cell line, censored GI50 values
[7] = MDAMB134VI cell line, censored GI50 values
[8] = MDAMB175VII cell line, censored GI50 values
[9] = MDAMB231 cell line, censored GI50 values
[10] = MDAMB415 cell line, censored GI50 values
[11] = MDAMB453 cell line, censored GI50 values
[12] = SUM149PT cell line, censored GI50 values
[13] = SUM159PT cell line, censored GI50 values
[14] = SUM1315MO2 cell line, censored GI50 values

CC(=O)Nc1cccc(-n2c(=O)n(C3CC3)c(=O)c3c(Nc4ccc(I)cc4F)n(C)c(=O)c(C)c32)c1.C[S+](C)[O-] [GSK1120212B]
GI50 [1]: 8.17
GI50 (BT549 cell line, censored GI50 values): 5.17
GI50 [2]: 8.18
GI50 (HCC202 cell line, censored GI50 values): 10.23
GI50 [3]: 6.71
GI50 [4]: 7.23
GI50 [5]: 5.08
GI50 [6]: 6.53
GI50 [7]: 7.72
GI50 [8]: 7.94
GI50 [9]: 6.86
GI50 [10]: 6.13
GI50 [11]: 6.61
GI50 [12]: 7.51
GI50 [13]: 7.93
GI50 [14]: 7.19
GI50 (cell line 600MPE): 8.17
GI50 (cell line AU565): 4.82
GI50 (cell line BT474): 4.78
GI50 (cell line BT483): 4.78
GI50 (cell line BT549): 5.17
GI50 (cell line CAMA1): 4.78
GI50 (cell line HCC38): 4.78
GI50 (cell line HCC70): 8.18
GI50 (cell line HCC202): 10.23
GI50 (cell line HCC1187): 4.78
GI50 (cell line HCC1395): 6.71
GI50 (cell line HCC1419): 7.23
GI50 (cell line HCC1428): 4.78
GI50 (cell line HCC1500): 4.78
GI50 (cell line HCC1806): 5.08
GI50 (cell line HCC1937): 4.78
GI50 (cell line HCC1954): 6.53
GI50 (cell line HCC2185): 4.78
GI50 (cell line HCC3153): 4.78
GI50 (cell line LY2): 4.78
GI50 (cell line MCF7): 4.78
GI50 (cell line MDAMB134V): 7.72
GI50 (cell line MDAMB157): 4.78
GI50 (cell line MDAMB175V): 7.94
GI50 (cell line MDAMB231): 6.86
GI50 (cell line MDAMB361): 4.78
GI50 (cell line MDAMB415): 6.13
GI50 (cell line MDAMB436): 4.81
GI50 (cell line MDAMB453): 6.61
GI50 (cell line MDAMB468): 4.85
GI50 (cell line SKBR3): 4.78
GI50 (cell line SUM52PE): 5.06
GI50 (cell line SUM149PT): 7.51
GI50 (cell line SUM159PT): 7.93
GI50 (cell line SUM185PE): 4.78
GI50 (cell line SUM1315MO): 7.19
GI50 (cell line T47D): 4.78
GI50 (cell line UACC812): 4.78
GI50 (cell line UACC893): 4.81
GI50 (cell line ZR75B): 4.78
GI50 (cell line ZR751): 4.78

O=C1NC(=O)/C(=C/c2ccc3nccc(-c4ccncc4)c3c2)S1 [GSK1059615B]
GI50 (cell line 600MPE, censored GI50 values): 6.31
GI50 (cell line 600MPE): 6.31
GI50 (cell line AU565, censored GI50 values): 6.32
GI50 (cell line AU565): 6.32
GI50 (cell line BT474, censored GI50 values): 6.80
GI50 (cell line BT549, censored GI50 values): 5.73
GI50 (cell line CAMA1, censored GI50 values): 5.77
GI50 (cell line HCC38, censored GI50 values): 6.11
GI50 (cell line HCC70, censored GI50 values): 6.75
GI50 (cell line HCC202, censored GI50 values): 7.23
GI50 (cell line HCC1143, censored GI50 values): 6.26
GI50 (cell line HCC1187, censored GI50 values): 6.48
GI50 (cell line HCC1395, censored GI50 values): 5.61
GI50 (cell line HCC1419, censored GI50 values): 6.59
GI50 (cell line HCC1428, censored GI50 values): 6.28
GI50 (cell line HCC1500, censored GI50 values): 5.71
GI50 (cell line HCC1806, censored GI50 values): 5.82
GI50 (cell line HCC1937, censored GI50 values): 6.09
GI50 (cell line HCC1954, censored GI50 values): 6.63
GI50 (cell line HCC2185, censored GI50 values): 6.89
GI50 (cell line HCC3153, censored GI50 values): 5.48
GI50 (cell line LY2, censored GI50 values): 5.82
GI50 (cell line MCF7, censored GI50 values): 5.53
GI50 (cell line MDAMB134VI, censored GI50 values): 6.25
GI50 (cell line MDAMB175VII, censored GI50 values): 6.18
GI50 (cell line MDAMB231, censored GI50 values): 5.21
GI50 (cell line MDAMB361, censored GI50 values): 5.84
GI50 (cell line MDAMB436, censored GI50 values): 5.88
GI50 (cell line MDAMB453, censored GI50 values): 6.52
GI50 (cell line MDAMB468, censored GI50 values): 5.96
GI50 (cell line SKBR3, censored GI50 values): 6.71
GI50 (cell line SUM52PE, censored GI50 values): 6.89
GI50 (cell line SUM149PT, censored GI50 values): 6.01
GI50 (cell line SUM159PT, censored GI50 values): 6.73
GI50 (cell line SUM185PE, censored GI50 values): 7.13
GI50 (cell line SUM1315MO2, censored GI50 values): 6.49
GI50 (cell line T47D, censored GI50 values): 6.58
GI50 (cell line UACC812, censored GI50 values): 6.62
GI50 (cell line UACC893, censored GI50 values): 6.89
GI50 (cell line ZR75B, censored GI50 values): 6.51
GI50 (cell line ZR751, censored GI50 values): 5.87
GI50 (cell line ZR7530, censored GI50 values): 6.82

C[C@@H](Oc1cc(-n2cnc3ccc(CN4CCN(C)CC4)cc32)sc1C(N)=O)c1ccccc1C(F)(F)F [GSK461364A]
GI50 [1]: 5.16
GI50 (AU565 cell line, censored GI50 values): 8.35
GI50 (BT474 cell line, censored GI50 values): 5.07
GI50 (BT483 cell line, censored GI50 values): 5.35
GI50 (CAMA1 cell line, censored GI50 values): 5.17
GI50 (HCC38 cell line, censored GI50 values): 7.42
GI50 [2]: 7.01
GI50 (HCC1143 cell line, censored GI50 values): 7.13
GI50 (HCC1187 cell line, censored GI50 values): 7.48
GI50 [3]: 8.31
GI50 [4]: 5.12
GI50 (HCC1428 cell line, censored GI50 values): 5.26
GI50 (HCC1500 cell line, censored GI50 values): 7.89
GI50 [5]: 7.95
GI50 (HCC1937 cell line, censored GI50 values): 7.51
GI50 [6]: 8.16
GI50 (HCC2185 cell line, censored GI50 values): 8.26
GI50 (HCC3153 cell line, censored GI50 values): 7.50
GI50 (MCF7 cell line, censored GI50 values): 7.82
GI50 [7]: 7.83
GI50 (MDAMB157 cell line, censored GI50 values): 8.98
GI50 [8]: 5.21
GI50 [9]: 7.68
GI50 (MDAMB361 cell line, censored GI50 values): 8.72
GI50 [10]: 7.08
GI50 (MDAMB436 cell line, censored GI50 values): 7.90
GI50 [11]: 7.97
GI50 (MDAMB468 cell line, censored GI50 values): 8.41
GI50 (SKBR3 cell line, censored GI50 values): 7.78
GI50 [12]: 7.72
GI50 [13]: 7.49
GI50 (SUM185PE cell line, censored GI50 values): 5.66
GI50 [14]: 7.51
GI50 (cell line 600MPE): 5.16
GI50 (cell line AU565): 8.35
